# B1: invented protein (active fragment (C)): purified reductase (SEQ ID NO:1) of Stenotrophomonas sp. SC-1, expressed in E. coli HB101 with plasmid pTrcRs (protein, listed as Stenotrophomonas sp.)
# chain: MTATRELGRSGLHVAPIAFGGNVFGWSADEKTSFALLDAFVEAGFNLVDTADVYSAWVPGNQGGESETILGRWFKHSGKRDKVVLATKVAKWSEHPGLSADNITAAVEDSLRRLQTDVIDLYQAHEDDESTPLESTLAAFGRLIEQGKVRAIGASNYSAERLSDALKVSADYKLPRYETLQPEYNLYDRAGYEAGLEAVVRDAQLGVISYYSLASGFLSGKYRSAADAGKSSARGQSVVDKYVNPRGLRILGALDDVASTHGVSPSQIAIAWLIARPGITAPIVSATSVEQLNDVLAAAKVALSAQEVQQLDAASAEQA
# What was measured:
# [1] = tested on: purified invented protein (active fragment (C)); assay: Substrate specificity: reduction activity of the invented protein on carbonyl compounds (NADPH absorbance decrease at 340 nm); type: biochemical, Stenotrophomonas sp. SC-1 strain
# [2] = Optimal pH of the reduction activity on ethyl benzoylformate; type: biochemical; conditions: ethyl benzoylformate 10 mM, NADPH 0.5 mM, pH 5.5 to 10, 30° C., 1 minute, 340 nm
# [3] = substrate 1 mM, NADPH 0.5 mM, 100 mM phosphate buffer pH 7, 30° C., 5 minutes, relative value, activity on ethyl benzoylformate = 100%
Molecule,"Relative activity (%) [1, 3] [%]",other results
O=C(O)CCC(=O)c1ccccc1 [3-Benzoylpropionic acid],3.3,
"CCOC(=O)C(=O)c1ccccc1 [Eethyl benzoylformate, ethyl benzoylformate]",100,
CCOC(=O)CC(=O)CCl [Ethyl 4-chloro-3-oxobutyrate],,Relative activity (%) ([1]; pH 7): 0.5%
CCOC(=O)C(=O)CCc1ccccc1 [Ethyl 4-phenyl2-oxobutyrate],1.5,
CCOC(=O)C(C)=O [Ethyl pyruvate],33.7,
COC(=O)CC(=O)CBr [Methyl 4-bromo-3-oxobutyrate],3.9,
CCC=O [Propionaldehyde],8.6,
B1,,optimal pH [2]: 7.0
